Reference: ChEMBL document CHEMBL3352670, “Synthesis, biological evaluation and molecular modeling of 1,3,4-thiadiazol-2-amide derivatives as novel antitubulin agents” (Bioorg Med Chem, 2014)

Legend:
[1] = tested on: HepG2; test: Antiproliferative activity against […] HepG2 cells after 48 hrs by MTT assay; type: functional, cell-based; details: Homo sapiens, HepG2, 48 h
[2] = tested on: MCF7; test: Antiproliferative activity against human MCF7 cells after 48 hrs by MTT assay; type: functional, cell-based; details: MCF7, 48 h
[3] = target: Tubulin (Bos taurus, UniProt Q6B856+Q862L2+Q862F3); test: Inhibition of bovine brain tubulin polymerization after 20 mins by turbidimetric method
[4] = tested on: A549; test: Antiproliferative activity against human A549 cells after 48 hrs by MTT assay; type: functional, cell-based; details: A549, 48 h
[5] = tested on: A549; test: Induction of apoptosis in human A549 cells assessed as early apoptotic cells at 0.1 uM after 24 hrs using Annexin-V/PI staining by flow cytometry (reference value: 1.92 %); type: functional
[6] = tested on: A549; test: Cell cycle arrest in human A549 cells assessed as accumulation at S phase at 0.05 uM after 48 hrs by flow cytometry (reference value: 13.83 %); type: functional
[7] = tested on: A549; test: Cell cycle arrest in human A549 cells assessed as accumulation at S phase at 0.01 uM after 48 hrs by flow cytometry (reference value: 13.83 %); type: functional
[8] = tested on: A549; test: Induction of apoptosis in human A549 cells assessed as late apoptotic cells at 0.05 uM after 24 hrs using Annexin-V/PI staining by flow cytometry (reference value: 4.01 %); type: functional
[9] = tested on: A549; test: Cell cycle arrest in human A549 cells assessed as accumulation at G2 phase at 0.01 uM after 48 hrs by flow cytometry (reference value: 6.75 %); type: functional
[10] = tested on: A549; test: Induction of apoptosis in human A549 cells assessed as late apoptotic cells at 0.1 uM after 24 hrs using Annexin-V/PI staining by flow cytometry (reference value: 4.01 %); type: functional
[11] = tested on: A549; test: Induction of apoptosis in human A549 cells assessed as early apoptotic cells at 0.05 uM after 24 hrs using Annexin-V/PI staining by flow cytometry (reference value: 1.92 %); type: functional
[12] = tested on: A549; test: Induction of apoptosis in human A549 cells assessed as necrotic cells at 0.1 uM after 24 hrs using Annexin-V/PI staining by flow cytometry (reference value: 3.11 %); type: functional
[13] = tested on: A549; test: Induction of apoptosis in human A549 cells assessed as late apoptotic cells at 0.01 uM after 24 hrs using Annexin-V/PI staining by flow cytometry (reference value: 4.01 %); type: functional
[14] = tested on: A549; test: Cell cycle arrest in human A549 cells assessed as accumulation at G1 phase at 0.01 uM after 48 hrs by flow cytometry (reference value: 79.42 %); type: functional
[15] = tested on: A549; test: Cell cycle arrest in human A549 cells assessed as G2/M arrest after 48 hrs by flow cytometry; type: functional, cell-based
[16] = tested on: A549; test: Cell cycle arrest in human A549 cells assessed as accumulation at S phase at 0.1 uM after 48 hrs by flow cytometry (reference value: 13.83 %); type: functional
[17] = tested on: A549; test: Cell cycle arrest in human A549 cells assessed as accumulation at G2 phase at 0.05 uM after 48 hrs by flow cytometry (reference value: 6.75 %); type: functional
[18] = tested on: A549; test: Cell cycle arrest in human A549 cells assessed as accumulation at G1 phase at 0.05 uM after 48 hrs by flow cytometry (reference value: 79.42 %); type: functional
[19] = tested on: A549; test: Induction of apoptosis in human A549 cells assessed as viable cells at 0.01 uM after 24 hrs using Annexin-V/PI staining by flow cytometry (reference value: 91.0 %); type: functional; details: A549, 24 h, read-out: Activity
[20] = tested on: A549; test: Induction of apoptosis in human A549 cells assessed as early apoptotic cells at 0.01 uM after 24 hrs using Annexin-V/PI staining by flow cytometry (reference value: 1.92 %); type: functional
[21] = tested on: A549; test: Induction of apoptosis in human A549 cells assessed as necrotic cells at 0.01 uM after 24 hrs using Annexin-V/PI staining by flow cytometry (reference value: 3.11 %); type: functional
[22] = tested on: A549; test: Induction of apoptosis in human A549 cells assessed as viable cells at 0.1 uM after 24 hrs using Annexin-V/PI staining by flow cytometry (reference value: 91.0 %); type: functional; details: A549, 24 h, read-out: Activity
[23] = tested on: A549; test: Cell cycle arrest in human A549 cells assessed as accumulation at G1 phase at 0.1 uM after 48 hrs by flow cytometry (reference value: 79.42 %); type: functional
[24] = tested on: A549; test: Induction of apoptosis in human A549 cells assessed as viable cells at 0.05 uM after 24 hrs using Annexin-V/PI staining by flow cytometry (reference value: 91.0 %); type: functional; details: A549, 24 h, read-out: Activity
[25] = tested on: A549; test: Induction of apoptosis in human A549 cells assessed as necrotic cells at 0.05 uM after 24 hrs using Annexin-V/PI staining by flow cytometry (reference value: 3.11 %); type: functional
[26] = tested on: A549; test: Cell cycle arrest in human A549 cells assessed as accumulation at G2 phase at 0.1 uM after 48 hrs by flow cytometry (reference value: 6.75 %); type: functional

## COc1ccc(/C=C\c2cc(OC)c(OC)c(OC)c2)cc1O [COMBRETASTATIN A4]
[1]
  IC50: 160 nM

## COc1cc(/C=C/c2nnc(NC(=O)c3cc(OC)c(OC)c(OC)c3Br)s2)c(Br)c(OC)c1OC
[2]
  IC50: 470 nM
[1]
  IC50: 200 nM
[3]
  IC50: 16.79 µM
[4]
  IC50: 130 nM

## COc1cc(/C=C/c2nnc(NC(=O)c3cccc(O)c3)s2)c(Br)c(OC)c1OC
[2]
  IC50: 360 nM
[1]
  IC50: 220 nM
[3]
  IC50: 13.44 µM
[4]
  IC50: 120 nM

## COc1cc(C(=O)Nc2nnc(/C=C/c3cc(OC)c(OC)c(OC)c3Br)s2)cc(OC)c1OC
[2]
  IC50: 510 nM
[1]
  IC50: 210 nM
[3]
  IC50: 16.95 µM
[4]
  IC50: 140 nM

## COc1ccc(C(=O)Nc2nnc(/C=C/c3cc(OC)c(OC)c(OC)c3Br)s2)cc1OC
[5]
  Activity: 12.9%
[6]
  Activity: 9.49%
[7]
  Activity: 19.68%
[8]
  Activity: 12.7%
[9]
  Activity: 7.14%
[2]
  IC50: 60 nM
[10]
  Activity: 22%
[1]
  IC50: 50 nM
[11]
  Activity: 5.48%
[12]
  Activity: 3.21%
[13]
  Activity: 7.96%
[3]
  IC50: 1.73 µM
[14]
  Activity: 73.18%
[4]
  IC50: 30 nM
[15]
  Activity: Dose-dependent effect
[16]
  Activity: 10.74%
[17]
  Activity: 53.34%
[18]
  Activity: 37.17%
[19]
  viability at 0.01 µM: 84.8%
[20]
  Activity: 3.41%
[21]
  Activity: 3.86%
[22]
  viability at 0.1 µM: 61.8%
[23]
  Activity: 0%
[24]
  viability at 0.05 µM: 77.8%
[25]
  Activity: 4.08%
[26]
  Activity: 89.26%

## COc1cc(/C=C/c2nnc(NC(=O)c3cccc(O)c3)s2)cc(OC)c1OC
[2]
  IC50: 460 nM
[1]
  IC50: 260 nM
[3]
  IC50: 23.67 µM
[4]
  IC50: 190 nM

## COc1ccc(/C=C/c2nnc(NC(=O)c3ccccc3OC)s2)cc1OC
[2]
  IC50: 540 nM
[1]
  IC50: 260 nM
[3]
  IC50: 29.44 µM
[4]
  IC50: 170 nM

## COc1ccc(/C=C/c2nnc(NC(=O)c3cc(OC)c(OC)c(OC)c3)s2)cc1OC
[2]
  IC50: 560 nM
[1]
  IC50: 220 nM
[3]
  IC50: 28.06 µM
[4]
  IC50: 160 nM

## COc1cc(/C=C/c2nnc(NC(=O)c3ccccc3)s2)c(Br)c(OC)c1OC
[2]
  IC50: 290 nM
[1]
  IC50: 180 nM
[3]
  IC50: 9.83 µM
[4]
  IC50: 110 nM

## COc1cccc(/C=C/c2nnc(NC(=O)c3cc(OC)c(OC)c(OC)c3Br)s2)c1
[2]
  IC50: 590 nM
[1]
  IC50: 210 nM
[3]
  IC50: 30.36 µM
[4]
  IC50: 190 nM

## COc1cccc(C(=O)Nc2nnc(/C=C/c3cc(OC)c(OC)c(OC)c3)s2)c1
[2]
  IC50: 480 nM
[1]
  IC50: 270 nM
[3]
  IC50: 22.5 µM
[4]
  IC50: 150 nM

## COc1cccc(C(=O)Nc2nnc(/C=C/c3cc(OC)c(OC)c(OC)c3Br)s2)c1
[2]
  IC50: 170 nM
[1]
  IC50: 120 nM
[3]
  IC50: 3.08 µM
[4]
  IC50: 60 nM

## COc1cc(/C=C/c2nnc(NC(=O)c3cccc(F)c3)s2)c(Br)c(OC)c1OC
[2]
  IC50: 340 nM
[1]
  IC50: 170 nM
[3]
  IC50: 7.08 µM
[4]
  IC50: 80 nM

## COc1cc(/C=C/c2nnc(NC(=O)c3ccccc3Br)s2)c(Br)c(OC)c1OC
[2]
  IC50: 370 nM
[1]
  IC50: 250 nM
[3]
  IC50: 19.45 µM
[4]
  IC50: 210 nM

## COc1cc(/C=C/c2nnc(NC(=O)c3ccc(Br)cc3)s2)c(Br)c(OC)c1OC
[2]
  IC50: 320 nM
[1]
  IC50: 200 nM
[3]
  IC50: 15.09 µM
[4]
  IC50: 160 nM

## COc1cc(/C=C/c2nnc(NC(=O)c3ccc(Cl)cc3)s2)c(Br)c(OC)c1OC
[2]
  IC50: 280 nM
[1]
  IC50: 180 nM
[3]
  IC50: 11.81 µM
[4]
  IC50: 140 nM

## COc1ccc(/C=C/c2nnc(NC(=O)c3cc(OC)c(OC)c(OC)c3Br)s2)cc1
[2]
  IC50: 550 nM
[1]
  IC50: 210 nM
[3]
  IC50: 28.58 µM
[4]
  IC50: 180 nM

## COc1cc(/C=C/c2nnc(NC(=O)c3cccc(Cl)c3)s2)c(Br)c(OC)c1OC
[2]
  IC50: 230 nM
[1]
  IC50: 150 nM
[3]
  IC50: 5.68 µM
[4]
  IC50: 70 nM

## COc1ccc(C(=O)Nc2nnc(/C=C/c3cc(OC)c(OC)c(OC)c3)s2)cc1OC
[2]
  IC50: 480 nM
[1]
  IC50: 250 nM
[3]
  IC50: 15.5 µM
[4]
  IC50: 130 nM

## COc1ccccc1C(=O)Nc1nnc(/C=C/c2cc(OC)c(OC)c(OC)c2Br)s1
[2]
  IC50: 600 nM
[1]
  IC50: 230 nM
[3]
  IC50: 17.91 µM
[4]
  IC50: 170 nM

## COc1ccc(C(=O)Nc2nnc(/C=C/c3cc(OC)c(OC)c(OC)c3Br)s2)cc1
[2]
  IC50: 560 nM
[1]
  IC50: 220 nM
[3]
  IC50: 18.79 µM
[4]
  IC50: 150 nM

## COc1cc(/C=C/c2nnc(NC(=O)c3cc(OC)c(OC)c(OC)c3)s2)cc(OC)c1OC
[2]
  IC50: 490 nM
[1]
  IC50: 280 nM
[3]
  IC50: 23.94 µM
[4]
  IC50: 160 nM

## COc1cc(/C=C/c2nnc(NC(=O)c3cccc(Br)c3)s2)c(Br)c(OC)c1OC
[2]
  IC50: 260 nM
[1]
  IC50: 160 nM
[3]
  IC50: 6.02 µM
[4]
  IC50: 80 nM

## COc1cc(/C=C/c2nnc(NC(=O)c3ccc(F)cc3)s2)c(Br)c(OC)c1OC
[2]
  IC50: 380 nM
[1]
  IC50: 240 nM
[3]
  IC50: 15.63 µM
[4]
  IC50: 190 nM
